Results published in paper PMC12382614, “(Oxidopyridyl)Porphyrins of Different Lipophilicity: Photophysical Properties, ROS Production and Phototoxicity on Melanoma Cells Under CoCl2-Induced Hypoxia” (Antioxidants, 2025).
Read-outs that look alike come from different tables or passages of the source.

Experiments:
[1] = Fluorescence spectra and fluorescence quantum yield in MeOH; format: physicochemical; details: excitation at Soret band
Protocol: (§1) The absorption spectra of (oxidopyridyl)porphyrins were recorded in HPLC grade MeOH on a Cary UV 60 (Agilent Technologies, Santa Clara, CA, USA), in a wavelength range of 300–700 nm. The fluorescence spectra in HPLC grade MeOH were recorded on a Cary Eclipse (Agilent Technologies) in a wavelength range of 500–800 nm after excitation at the Soret band wavelength (λ ~ 420 nm). The slits of the spectrometer were set to a bandpass of 5 nm for the excitation and 5 nm for the emission. To calculate the fluorescence quantum yields, the measurements were conducted on an FS5 Edinburgh Instruments spectrometer. Prior to taking the measurements, the solutions were purged with high-purity N2 for at least 15 min. The absorbance of the solutions was set to A < 0.1 at 405 nm and 550 nm, which settings were used for the excitation process. Emission was recorded from 550 to 800 nm, with slits set to the bandpass corresponding to 2 nm for the excitation, and 3 nm for the emission. Fluorescence quantum yield (ΦFL) was calculated in comparison to the tetraphenylporphyrin (TPP; ΦFL = 0.11 [23]) as a standard, according to Equation (S1) and following an equation previously described elsewhere.

MeWo = test: Photocytotoxicity, MTT assay; format: cell-based, human; details: red light 643 nm 30 min; for IC50: 6 h incubation; for SI (IC50 (HDF) / IC50 (melanoma cells)) MeWo 100 µM CoCl2: CoCl2-induced hypoxia; for SI (IC50 (HDF) / IC50 (melanoma cells)) MeWo No CoCl2: normoxia
Protocol: (§2) For (photo)cytotoxicity assays, stock solutions of porphyrins were prepared in DMSO and dissolved in DMEM to the final concentrations. The porphyrin incubation time was 6h. Irradiation of the cells was with red light (λ = 643 nm) for 30 min (light dose, 3.6 J/cm^2). Nonirradiated cells were used to test the dark toxicity. All measurements were performed in three individual experiments, and the results are shown as the proliferation (%) of the cells and were calculated as IC50 values.
(§3) The cytotoxicity of (oxidopyridyl)porphyrins was assessed by an MTT assay on the HDF, MeWo and A375 cell lines after 6 h of incubation with porphyrins, without irradiation, or after 30 min of irradiation with red light (λ = 643 nm), and under conditions of normoxia or hypoxia. To induce hypoxia, 100 µM of CoCl2 was added at least two hours before the porphyrins. […] Oxygen is also one of the substrates for the activity of prolyl hydroxylases; therefore, in both cases, the result is the blockage of hydroxylation of HIF-1α and, consequently, its increase and stabilisation, which, in the case of CoCl2-induced hypoxia, can be maintained for several hours.

HDF = test: Photocytotoxicity, MTT assay; format: cell-based, human; details: 6 h incubation, red light 643 nm 30 min
Protocol: as §2, §3

A375 = test: Photocytotoxicity, MTT assay; format: cell-based, human; details: red light 643 nm 30 min; for IC50: 6 h incubation; for SI (IC50 (HDF) / IC50 (melanoma cells)) A375 100 µM CoCl2: CoCl2-induced hypoxia; for SI (IC50 (HDF) / IC50 (melanoma cells)) A375 No CoCl2: normoxia
Protocol: as §2, §3

[2] = tested on: HDF, MeWo and A375 cell lines; test: (Photo)cytotoxicity MTT assay, statements made for all cell lines; format: cell-based, human; details: irradiation 643 nm
Protocol: as §2, §3

[3] = UV-Vis absorption spectra in MeOH; format: physicochemical
Protocol: as §1

[4] = Homo sapiens, MeWo, light or radiation study, 3.6 J/cm^2, 100 μM CoCl2 at least 2 h before porphyrin, read-out: IC50 MeWo CoCl2
[5] = Homo sapiens, MeWo, light or radiation study, 3.6 J/cm^2, normoxia, read-out: IC50 MeWo No CoCl2
[6] = Homo sapiens, HDF, light or radiation study, 3.6 J/cm^2, 100 μM CoCl2 at least 2 h before porphyrin, read-out: IC50 HDF CoCl2
[7] = Homo sapiens, HDF, light or radiation study, 3.6 J/cm^2, normoxia, read-out: IC50 HDF No CoCl2
[8] = Homo sapiens, A-375, light or radiation study, 3.6 J/cm^2, 100 μM CoCl2 at least 2 h before porphyrin, read-out: IC50 A375 CoCl2
[9] = Homo sapiens, A-375, light or radiation study, 3.6 J/cm^2, normoxia, read-out: IC50 A375 No CoCl2
[10] = 3.6 J/cm^2, 100 μM CoCl2 at least 2 h before porphyrin, read-out: IC50 MeWo CoCl2
[11] = 3.6 J/cm^2, normoxia, read-out: IC50 MeWo No CoCl2
[12] = 3.6 J/cm^2, 100 μM CoCl2 at least 2 h before porphyrin, read-out: IC50 HDF CoCl2
[13] = 3.6 J/cm^2, normoxia, read-out: IC50 HDF No CoCl2
[14] = 3.6 J/cm^2, 100 μM CoCl2 at least 2 h before porphyrin, read-out: IC50 A375 CoCl2
[15] = 3.6 J/cm^2, normoxia, read-out: IC50 A375 No CoCl2

CCCCCCCCCC(=O)Nc1ccc(-c2c3nc(c(-c4ccc[n+]([O-])c4)c4ccc([nH]4)c(-c4ccc[n+]([O-])c4)c4nc(c(-c5ccc[n+]([O-])c5)c5ccc2[nH]5)C=C4)C=C3)cc1 [TOPyP3-C9H19, 5-(4-Decanamidophenyl)-10,15,20-tris(1-oxido-3-pyridyl)porphyrin]
λFL Q(0,0) [1]: 648 nm
λFL Q(0,1) [1]: 713 nm
IC50 (MeWo; [4]): 6280 ± 820 nM
IC50 (MeWo; [5]): 5460 ± 1080 nM
SI (IC50 (HDF) / IC50 (melanoma cells)) MeWo 100 µM CoCl2 (MeWo): 1.2
SI (IC50 (HDF) / IC50 (melanoma cells)) MeWo No CoCl2 (MeWo): 0.6
IC50 (HDF; [6]): 7650 ± 60 nM
IC50 (HDF; [7]): 3490 ± 450 nM
IC50 (A375; [8]): 5460 ± 1480 nM
IC50 (A375; [9]): 3870 ± 450 nM
SI (IC50 (HDF) / IC50 (melanoma cells)) A375 100 µM CoCl2 (A375): 1.4
SI (IC50 (HDF) / IC50 (melanoma cells)) A375 No CoCl2 (A375): 0.9
phototoxicity / reduction of proliferation at 1 µM ([2]; 1 µM, normoxia or CoCl2-induced hypoxia): very low
ε Qx (0-0) [3]: 1500 M⁻¹ cm⁻¹
ε Qx (1-0) [3]: 4900 M⁻¹ cm⁻¹
ε Qy (0-0) [3]: 5100 M⁻¹ cm⁻¹
ε Qy (1-0) [3]: 15400 M⁻¹ cm⁻¹
ε Soret (B) [3]: 296400 M⁻¹ cm⁻¹
λabs Qx (0-0) [3]: 645 nm
λabs Qx (1-0) [3]: 588 nm
λabs Qy (0-0) [3]: 548 nm
λabs Qy (1-0) [3]: 512 nm
λabs Soret (B) [3]: 417 nm

CCCCCCCCCCCCCC(=O)Nc1ccc(-c2c3nc(c(-c4ccc[n+]([O-])c4)c4ccc([nH]4)c(-c4ccc[n+]([O-])c4)c4nc(c(-c5ccc[n+]([O-])c5)c5ccc2[nH]5)C=C4)C=C3)cc1 [TOPyP3-C13H27, 5-(4-Tetradecanamidophenyl)-10,15,20-tris(1-oxido-3-pyridyl)porphyrin]
λFL Q(0,0) [1]: 648 nm
λFL Q(0,1) [1]: 713 nm
IC50 (MeWo; [4]): 1790 ± 370 nM
IC50 (MeWo; [5]): 1040 ± 90 nM
SI (IC50 (HDF) / IC50 (melanoma cells)) MeWo 100 µM CoCl2 (MeWo): 1.5
SI (IC50 (HDF) / IC50 (melanoma cells)) MeWo No CoCl2 (MeWo): 0.8
IC50 (HDF; [6]): 2620 ± 190 nM
IC50 (HDF; [7]): 860 ± 40 nM
IC50 (A375; [8]): 860 ± 60 nM
IC50 (A375; [9]): 780 ± 170 nM
SI (IC50 (HDF) / IC50 (melanoma cells)) A375 100 µM CoCl2 (A375): 3.0
SI (IC50 (HDF) / IC50 (melanoma cells)) A375 No CoCl2 (A375): 1.1
ε Qx (0-0) [3]: 2000 M⁻¹ cm⁻¹
ε Qx (1-0) [3]: 6000 M⁻¹ cm⁻¹
ε Qy (0-0) [3]: 5800 M⁻¹ cm⁻¹
ε Qy (1-0) [3]: 19300 M⁻¹ cm⁻¹
ε Soret (B) [3]: 364600 M⁻¹ cm⁻¹
λabs Qx (0-0) [3]: 646 nm
λabs Qx (1-0) [3]: 588 nm
λabs Qy (0-0) [3]: 547 nm
λabs Qy (1-0) [3]: 512 nm
λabs Soret (B) [3]: 417 nm

CCCCCCCCCC(=O)Nc1ccc(-c2c3nc(c(-c4ccc[n+](C)c4)c4ccc([nH]4)c(-c4ccc[n+](C)c4)c4nc(c(-c5ccc[n+](C)c5)c5ccc2[nH]5)C=C4)C=C3)cc1 [TMPyP3-C9H19]
IC50 (MeWo; [10]): 6810 ± 1360 nM
IC50 (MeWo; [11]): 3520 ± 650 nM
SI (IC50 (HDF) / IC50 (melanoma cells)) MeWo 100 µM CoCl2 (MeWo): 1.3
SI (IC50 (HDF) / IC50 (melanoma cells)) MeWo No CoCl2 (MeWo): 2.0
IC50 (HDF; [12]): 8870 ± 20 nM
IC50 (HDF; [13]): 7090 ± 660 nM
IC50 (A375; [14]): 990 ± 130 nM
IC50 (A375; [15]): 670 ± 30 nM
SI (IC50 (HDF) / IC50 (melanoma cells)) A375 100 µM CoCl2 (A375): 9.0
SI (IC50 (HDF) / IC50 (melanoma cells)) A375 No CoCl2 (A375): 10.6

CCCCCCCCCCCCCC(=O)Nc1ccc(-c2c3nc(c(-c4ccc[n+](C)c4)c4ccc([nH]4)c(-c4ccc[n+](C)c4)c4nc(c(-c5ccc[n+](C)c5)c5ccc2[nH]5)C=C4)C=C3)cc1 [TMPyP3-C13H27]
IC50 (MeWo; [10]): 610 ± 160 nM
IC50 (MeWo; [11]): 430 ± 30 nM
SI (IC50 (HDF) / IC50 (melanoma cells)) MeWo 100 µM CoCl2 (MeWo): 1.6
SI (IC50 (HDF) / IC50 (melanoma cells)) MeWo No CoCl2 (MeWo): 1.9
IC50 (HDF; [12]): 990 ± 50 nM
IC50 (HDF; [13]): 810 ± 50 nM
IC50 (A375; [14]): 220 ± 80 nM
IC50 (A375; [15]): 150 ± 60 nM
SI (IC50 (HDF) / IC50 (melanoma cells)) A375 100 µM CoCl2 (A375): 4.5
SI (IC50 (HDF) / IC50 (melanoma cells)) A375 No CoCl2 (A375): 5.4
IC50 ([2]; with or without CoCl2, read-out: IC50 in all the tested cells): ≤ 1000 nM
